Experimental data as given in patent publication US9248103B2, “Method for improving water solubility of slightly soluble substance” (Kabushiki Kaisha Sangi, priority 2012, dated 2016).

Legend:
Format in all cases: physicochemical
[1] = Dissolution test of poorly-soluble substances, distilled water
Experimental: (§1) From initiation of the test, the mixed solution was stirred with a stirrer having a length of 15 mm. The rotation number of the stirrer was 120 rpm, and all of the tests were conducted in a thermostat at 37±0.5° C. Two types of test solutions, namely, distilled water and 2nd fluid for disintegration test (pH 6.8) of the Japanese Pharmacopoeia were used. As such 2nd fluid for disintegration test of the Japanese Pharmacopoeia, a solution prepared by diluting the 10-fold concentration solution of Kanto Kagaku Co., Ltd. with distilled water was used.
(§2) A comparative test was carried out in the same manner as that described above, with the exception that, instead of a substance with improved aqueous solubility coated with hydroxyapatite microparticles and with a pH adjuster and/or a surfactant, a poorly-soluble substance or the like was used in the same amount as the substance with improved aqueous solubility.
(§3) […] The thus sampled solution was centrifuged at 12,000 rpm for 5 minutes. Thereafter, the substance with improved aqueous solubility and hydroxyapatite microparticles, which had not been dissolved in the solution, were removed. In the case of the comparative test, the poorly-soluble substance or the like, which had not been dissolved in the solution, was removed. An aliquot of this supernatant was immediately frozen. The frozen sample was freeze-dried, and it was then used as a sample in the measurement of the amount of the substance with improved aqueous solubility, which had been dissolved in the test solution. The dissolved poorly-soluble substance was measured mainly using a dual wavelength absorption photometer.

[2] = pH of aqueous solution after 60 minutes in dissolution test using distilled water
Experimental: Moreover, as described above, since the pH of a local portion that is contacted with a poorly-soluble substance is more important than the pH of a solution as a whole, when an acidic substance is dissolved, desired effects can be obtained even though the pH is not extremely high. It is sufficient if a pH adjuster is used such that the pH of an aqueous solution of a substance with improved aqueous solubility becomes pH 8 or less. […] Herein, the pH of an aqueous solution indicates a pH value that is measured 60 minutes after the addition of a target substance to 50 mL of distilled water in an amount 2 times larger than the substance dissolved in 360 minutes. More specifically, the pH of an aqueous solution indicates a pH value that is measured according to [Dissolution test of poorly-soluble substances] in the below-mentioned Examples.
as §1

[3] = Dissolution test of poorly-soluble substances, 2nd fluid for disintegration test (pH 6.8) of the Japanese Pharmacopoeia
Experimental: as §1, §2, §3
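Further: Comparative example rows not the inventive coated formulation.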

## COc1cc(Cc2cnc(N)nc2N)cc(OC)c1OC [4-3, Trimethoprim]
[1]
  Dissolved amount, elution time 1 min: 354.6 µg/mL
  Dissolved amount, elution time 3 min: 531.0 µg/mL
  Dissolved amount, elution time 10 min: 685.0 µg/mL
  Dissolved amount, elution time 30 min: 677.9 µg/mL
  Dissolved amount, elution time 60 min: 671.8 µg/mL
  Dissolved amount, elution time 180 min: 672.0 µg/mL
  Dissolved amount, elution time 360 min: 656.3 µg/mL
[2]; Trimethoprim
  pH at 60 minutes after dissolution: 8.4
[3]
  Dissolved amount, elution time 1 min: 807.8 µg/mL
  Dissolved amount, elution time 3 min: 1160.4 µg/mL
  Dissolved amount, elution time 10 min: 1291.7 µg/mL
  Dissolved amount, elution time 30 min: 1344.0 µg/mL
  Dissolved amount, elution time 60 min: 1324.8 µg/mL
  Dissolved amount, elution time 180 min: 1296.5 µg/mL
  Dissolved amount, elution time 360 min: 1321.9 µg/mL

## NC(N)=Nc1nc(CSCCC(N)=NS(N)(=O)=O)cs1 [3-4, Famotidine]
[1]
  Dissolved amount, elution time 1 min: 1162.9 µg/mL
  Dissolved amount, elution time 3 min: 1502.6 µg/mL
  Dissolved amount, elution time 10 min: 1416.8 µg/mL
  Dissolved amount, elution time 180 min: 1509.8 µg/mL
  Dissolved amount, elution time 360 min: 1497.4 µg/mL
[2]; Famotidine
  pH at 60 minutes after dissolution: 8.4
[3]
  Dissolved amount, elution time 3 min: 2286.6 µg/mL
  Dissolved amount, elution time 10 min: 2541.7 µg/mL
  Dissolved amount, elution time 30 min: 2600.9 µg/mL
  Dissolved amount, elution time 60 min: 2667.9 µg/mL
  Dissolved amount, elution time 180 min: 2509.7 µg/mL
  Dissolved amount, elution time 360 min: 2410.4 µg/mL

## CC(C)(Sc1cc(C(C)(C)C)c(O)c(C(C)(C)C)c1)Sc1cc(C(C)(C)C)c(O)c(C(C)(C)C)c1 [5-2, Probucol]
[1]; Probucol
  Dissolved amount, elution time 1 min: 0.7 µg/mL
  Dissolved amount, elution time 3 min: 2.7 µg/mL
  Dissolved amount, elution time 10 min: 3.7 µg/mL
  Dissolved amount, elution time 30 min: 6.1 µg/mL
  Dissolved amount, elution time 60 min: 7.6 µg/mL
  Dissolved amount, elution time 180 min: 8.3 µg/mL
  Dissolved amount, elution time 360 min: 9.7 µg/mL
[3]; Probucol
  Dissolved amount, elution time 1 min: 4.7 µg/mL
  Dissolved amount, elution time 3 min: 14.9 µg/mL
  Dissolved amount, elution time 10 min: 19.9 µg/mL
  Dissolved amount, elution time 30 min: 21.2 µg/mL
  Dissolved amount, elution time 60 min: 21.8 µg/mL
  Dissolved amount, elution time 180 min: 26.8 µg/mL
  Dissolved amount, elution time 360 min: 28.0 µg/mL

## O=C(CCCN1CCC(O)(c2ccc(Cl)cc2)CC1)c1ccc(F)cc1 [10-1, Haloperidol]
[1]; Haloperidol
  Dissolved amount, elution time 3 min: 8.2 µg/mL
  Dissolved amount, elution time 10 min: 10.0 µg/mL
  Dissolved amount, elution time 30 min: 11.3 µg/mL
  Dissolved amount, elution time 120 min: 12.8 µg/mL
  Dissolved amount, elution time 360 min: 13.1 µg/mL
[2]; Haloperidol
  pH at 60 minutes after dissolution: 8.1
[3]; Haloperidol
  Dissolved amount, elution time 3 min: 23.9 µg/mL
  Dissolved amount, elution time 10 min: 35.6 µg/mL
  Dissolved amount, elution time 30 min: 45.2 µg/mL
  Dissolved amount, elution time 120 min: 50.1 µg/mL
  Dissolved amount, elution time 360 min: 48.9 µg/mL

## CC(=O)SC[C@@H](C)C(=O)N1CCC[C@H]1C(=O)N[C@@H](Cc1ccccc1)C(=O)O [8-1, Alacepril]
[1]; Alacepril
  Dissolved amount, elution time 3 min: 526.2 µg/mL
  Dissolved amount, elution time 10 min: 805.6 µg/mL
  Dissolved amount, elution time 30 min: 931.2 µg/mL
  Dissolved amount, elution time 120 min: 994.9 µg/mL
  Dissolved amount, elution time 360 min: 996.5 µg/mL
[2]; Alacepril
  pH at 60 minutes after dissolution: 2.9
[3]; Alacepril
  Dissolved amount, elution time 3 min: 2311.1 µg/mL
  Dissolved amount, elution time 10 min: 2514.7 µg/mL
  Dissolved amount, elution time 30 min: 2525.0 µg/mL
  Dissolved amount, elution time 120 min: 2588.4 µg/mL

## CCN1CCCC1CNC(=O)c1cc(S(N)(=O)=O)ccc1OC (centres unmarked) [6-4, Sulpiride]
[2]; Sulpiride
  pH at 60 minutes after dissolution: 9.3

## CC[C@H]1OC(=O)[C@H](C)[C@@H](O[C@H]2C[C@@](C)(OC)[C@@H](O)[C@H](C)O2)[C@H](C)[C@@H](O[C@@H]2O[C@H](C)C[C@H](N(C)C)[C@H]2O)[C@](C)(O)C[C@@H](C)C(=O)[C@H](C)[C@@H](O)[C@]1(C)O [9-1, Erythromycin]
[1]; Erythromycin
  Dissolved amount, elution time 3 min: 635.0 µg/mL
  Dissolved amount, elution time 10 min: 861.6 µg/mL
  Dissolved amount, elution time 30 min: 944.7 µg/mL
  Dissolved amount, elution time 120 min: 927.7 µg/mL
  Dissolved amount, elution time 360 min: 846.1 µg/mL
[2]; Erythromycin
  pH at 60 minutes after dissolution: 9.6
[3]; Erythromycin
  Dissolved amount, elution time 3 min: 2556.3 µg/mL
  Dissolved amount, elution time 10 min: 4984.2 µg/mL
  Dissolved amount, elution time 30 min: 5103.6 µg/mL
  Dissolved amount, elution time 120 min: 5904.1 µg/mL
  Dissolved amount, elution time 360 min: 6044.7 µg/mL

## CCCCNC(=O)NS(=O)(=O)c1ccc(C)cc1 [1-5, Tolbutamide]
[1]
  Dissolved amount, elution time 1 min: 48.8 µg/mL
  Dissolved amount, elution time 3 min: 49.3 µg/mL
  Dissolved amount, elution time 10 min: 51.3 µg/mL
  Dissolved amount, elution time 30 min: 56.6 µg/mL
  Dissolved amount, elution time 60 min: 50.5 µg/mL
  Dissolved amount, elution time 180 min: 52.9 µg/mL
  Dissolved amount, elution time 360 min: 68.6 µg/mL
[2]; Tolbutamide
  pH at 60 minutes after dissolution: 4.3
[3]
  Dissolved amount, elution time 1 min: 637.3 µg/mL
  Dissolved amount, elution time 3 min: 1597.2 µg/mL
  Dissolved amount, elution time 10 min: 2041.9 µg/mL
  Dissolved amount, elution time 30 min: 2141.1 µg/mL
  Dissolved amount, elution time 60 min: 2449.4 µg/mL
  Dissolved amount, elution time 180 min: 2432.9 µg/mL
  Dissolved amount, elution time 360 min: 2429.1 µg/mL
